Measurements reported in patent US20230278972A1, “SUBSTITUTED HALOALKYL SULFONANILIDE HERBICIDES” (FMC Corporation, priority 2020, published 2023).

Legend:
Format in all cases: in vivo
[1] = test system: wheat (Triticum aestivum); assay: Test A1 preemergence, wheat
Method in brief: (§1)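 Both timings started from seed in a loam-sand blend. Preemergence pots got a directed soil application immediately; postemergence pots were sprayed when seedlings had one or two leaves and stood 2–10 cm. Each compound was prepared in a non-phytotoxic solvent plus surfactant.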

[2] = test system: kochia (Bassia scoparia); assay: Test A1 postemergence, kochia; conditions: for Plant response rating, Kochia: Postemergence; for Kochia plant response rating: postemergence
Method in brief: as §1

[3] = test system: goosegrass (Eleusine indica); assay: Test A1 preemergence, goosegrass
Method in brief: as §1

[4] = test system: corn (Zea mays); assay: Test A1 preemergence, corn
Method in brief: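 Pre: seeds in loam/sand blend, directed soil spray. Post: potted plants, same soil, 2–10 cm, 1–2 leaf stage. Chemicals in non-phytotoxic solvent + surfactant for both.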

[5] = test system: rice (Oryza sativa); assay: Test B1 flooded paddy test, rice; conditions: 250 g ai/ha, Flood, applied to paddy water, 2-leaf stage, visually evaluated after 10 to 14 days
Source text: A dash (-) response means no test result.

[6] = 31 g ai/ha, 0 to 100 scale (0 no effect, 100 complete control)
[7] = 125 g ai/ha, 0 to 100 scale, 0 no effect, 100 complete control
[8] = 125 g ai/ha, 0 to 100 scale (0 no effect, 100 complete control), 10 days
[9] = 500 g ai/ha, 0 to 100 scale (0 no effect, 100 complete control)
[10] = 125 g ai/ha, 0 to 100 scale (0 no effect, 100 complete control)

SMILES | Plant response rating, Wheat [1, 6] | Plant response rating, Wheat [1, 7] | Plant response rating, Kochia ([2]; 31 g ai/ha, 0 to 100 scale (0 no effect, 100 complete control), 10 days) | Plant response rating, Kochia ([2]; 125 g ai/ha, 0 to 100 scale) | Plant response rating, Goosegrass [3, 6] | Plant response rating, Goosegrass [3, 7] | Plant response rating, Corn [4, 6] | Plant response rating, Corn [4, 7] | Plant response rating, Rice (0 to 100 scale, 0 is no effect, 100 is complete control) [5] | Kochia plant response rating [2, 6] | Plant response rating, Kochia [2, 8] | Plant response rating, Wheat [1, 9] | Plant response rating, Kochia ([2]; 500 g ai/ha, 0 to 100 scale) | Plant response rating, Goosegrass [3, 9] | Plant response rating, Corn [4, 9] | Plant response rating, Wheat [1, 10] | Plant response rating, Goosegrass [3, 10]
Cc1c(NS(=O)(=O)C(F)(F)F)cc(C(=O)N2CCSCC2)c(C)c1C [Compound 283] | 0 | 50 | 20 | 60 | 30 | 60 | 0 | 10 | 0 |  |  |  |  |  |  |  | 
Cc1cc(C)c(N2CCC3(CCC(C(F)(F)F)CC3)C2=O)cc1NS(=O)(=O)C(F)(F)F (stereo not shown) [Compound 400] | 10 | 80 |  |  | 90 | 100 | 0 | 20 | 25 | 20 | 70 |  |  |  |  |  | 
Cc1c(C2=NOC3(CCCC3)C2)cc(N(COC(=O)C(C)(C)C)S(=O)(=O)C(F)(F)F)c(C)c1C [Compound 382] | 20 | 20 |  |  | 0 | 30 | 0 | 0 | 10 | 0 | 30 |  |  |  |  |  | 
Cc1cc(C)c(N2CCC3(CCC(C)CC3)C2=O)cc1NS(=O)(=O)C(F)(F)F (stereo not shown) [Compound 402] | 30 | 50 |  |  | 90 | 100 | 0 | 80 | 0 | 10 | 50 |  |  |  |  |  | 
Cc1cc(C)c(N(COC(=O)C(C)(C)C)S(=O)(=O)C(F)(F)F)cc1N1CCC2(CCC(F)(F)CC2)C1=O [Compound 397] |  | 20 |  |  |  | 100 |  | 10 | 0 |  | 90 | 100 | 90 | 100 | 60 |  | 
Cc1cc(C)c(C2=NOC(C(C)C)C2)cc1NS(=O)(=O)C(F)(F)F (stereo not shown) [Compound 381] | 40 | 90 |  |  | 30 | 100 | 0 | 70 | 0 | 0 | 20 |  |  |  |  |  | 
CCOc1cccc2c1C(=O)N(c1cc(N(COC(=O)C(C)(C)C)S(=O)(=O)Cl)c(C)cc1C)C2 [Compound 414] |  |  |  |  | 0 |  | 0 | 10 | 0 | 1 | 50 |  |  |  |  | 0 | 0
COc1cccc2c1C(=O)N(c1cc(N(COC(=O)C(C)(C)C)S(=O)(=O)Cl)c(C)cc1C)C2 [Compound 413] |  |  |  |  | 50 |  | 0 | 10 | 0 | 20 | 80 |  |  |  |  | 0 | 80
Cc1ccc(C2=NOC3CCCC23)cc1NS(=O)(=O)C(F)(F)F (stereo not shown) [Compound 377] | 0 | 20 |  | 30 | 0 | 20 | 0 | 0 | 0 | 20 |  |  |  |  |  |  | 
C#CCN(C)C(=O)c1cc(NS(=O)(=O)C(F)(F)F)c(C)c(C)c1C [Compound 368] | 20 | 100 |  | 80 | 70 | 90 | 0 | 90 | 0 | 60 |  |  |  |  |  |  | 
